Experimental data from patent US8410140B2, “Anesthetic methods and compositions” (The Regents of the University of Michigan, priority 2009, dated 2013).

Tests used:
[1] = system: sciatic nerve block in rat; assay: Paw withdrawal latency (PWL) to a heat stimulus after perineural sciatic nerve block, dexmedetomidine dose response (Example 2); assay type: in vivo; conditions: operative paw, ropivacaine 0.5%, heat cut-off 15 seconds, n = 10
Procedure: Commercially available 0.75% ropivacaine solution was mixed with preservative free normal saline or dexmedetomidine to make final solutions. The control group received 0.5% ropivacaine alone. In the experimental groups, ropivacaine was mixed with dexmedetomidine to make solutions based on the individual rat's weight 24 hours prior to experimental testing. […] The pH of ropivacaine (5.69±0.05) was used as the standard to which all solutions were maintained.
Fifty male Sprague Dawley rats (caesarean-derived Sprague-Dawley) weighing 250-350 g were purchased from Charles River Laboratories (Wilmington, Mass.). Rats without any signs of neurobehavioral impairment were maintained for one week in 12:12 light-dark cycles with lights on from 6 a.m. to 6 p.m. For the three days prior to surgery and neurobehavioral monitoring, rats were conditioned to the paw withdrawal chambers for one hour per day. Each rat was placed in the same position of the six-chamber container during the conditioning and neurobehavioral testing. On each of the three days prior to testing, both paws of the rat were exposed to the heat stimulus as a portion of the conditioning process. The day before surgery and testing, five PWL baseline measurements were obtained on both the operative and control paws. The mean value of the five measures was recorded as the rat's baseline value.
The IITC Life Sciences Inc. Plantar Analgesia Meter (Series 8 Model 336T, IITC Life Science Inc., Woodland Hills, Calif.) was used to test paw withdrawal latency (PWL) (Hargreaves et al. (1988) Pain 32:77-88; herein incorporated by reference in its entirety). The analgesia meter used a test unit containing a heat source that radiated a light beam. An angled mirror on the test unit was used to locate the correct target on the paw. The meter was set with an active intensity of 40%, an idle intensity of 10%, and a cut-off time for the heat source of 15 seconds. The time to paw withdrawal from the heat stimulus comprised the PWL measure (reaction time was measured to 0.01 s). An acrylic six-chamber container was used to separate the rats that were placed on the glass (Model 400) heated base. In order to decrease the level of variance in PWL measurements, the temperature of the base was set to 30 degrees Celsius five minutes prior to and throughout each round of PWL testing (Ding et al. (1997) Neurosci. Methods 76:183-191; herein incorporated by reference in its entirety).
An investigator blinded to the drug condition carried out the sciatic nerve injections. Each rat was randomly assigned to one of the five drug conditions. The laboratory assistants responsible for drug preparation were blinded to the surgery, neurobehavioral monitoring, and PWL measures. Rats were anesthetized and maintained with 2.5% isoflurane. […] Following the dissection, the sciatic nerve was clearly identified at a point proximal its bifurcation. All rats received unilateral injections of 0.2 ml of drug into the perineural space below the clear fascia covering the nerve and proximal to the bifurcation of the sciatic nerve. Injections were made using a tuberculin syringe and a 30-gauge needle. The time of the injection was recorded and deemed the zero time point. A non-absorbable muscle fascia suture was placed at the midpoint of the injection site as a marker for subsequent nerve removal.

[2] = system: sciatic nerve block in rat; assay: PWL and inter-paw differential (IPD), perineural versus subcutaneous dexmedetomidine in sciatic nerve block (Example 3); assay type: in vivo
Procedure: The relative systemic versus peripheral perineural effects of dexmedetomidine were determined by observing the PWL for the blocked and unblocked (control) paw. The effect of sensory analgesia (as measured by the PWL) to the operative paw compared with the control paw was calculated and is reported as the inter-paw differential (IPD=100*[Operative PWL−Control PWL]/Control PWL).
Data are presented as mean±SEM.

[3] = system: sciatic nerve block in rat; conditions: high-dose dexmedetomidine alone or combined with approved concentrations of bupivacaine; cited from earlier work
[4] = drug(s) injected perineurally, saline subcutaneously, ropivacaine 0.5%, DEX 20.0 μg/kg, p<0.05

SMILES | Mean PWL values, 90 min ([1]; 90 min after 0.2 ml perineural sciatic injection) [s] | Mean PWL values, 120 min ([1]; 120 min after 0.2 ml perineural sciatic injection) [s] | Mean PWL values, 150 min ([1]; 150 min after 0.2 ml perineural sciatic injection) [s] | Mean PWL values, 180 min ([1]; 180 min after 0.2 ml perineural sciatic injection) [s] | Mean PWL values, 210 min ([1]; 210 min after 0.2 ml perineural sciatic injection) [s] | PWL scores of the operative paws, 30-90 min time points ([2]; dense blockade, cutoff threshold 15 s, ropivacaine 0.5%, DEX 20.0 μg/kg) [s] | time points with significant differences between the operative and control paws (PWL) [2, 4] [min] | sensory blockade of the operative paw ([2]; DEX 20.0 μg/kg alone, perineural) | inter-paw differential (IPD), relative effect ([2]; DEX 20.0 μg/kg alone, perineural, significantly different at 30 and 60 minutes (p=0.006 and 0.002)) | time points with significant differences between the operative and control paws (PWL) ([2]; DEX 20.0 μg/kg injected subcutaneously, perineural 0.5% ropivacaine or saline) | neurotoxicity [3]
CCCN1CCCC[C@H]1C(=O)Nc1c(C)cccc1C [Ropivacaine, ropivacaine] | 13.25 | 6.13 | 4.74 | 5.35 | 5.05 | ~15 | 30 to 90 | – | – | – | –
Cc1cccc([C@H](C)c2cnc[nH]2)c1C [dexmedetomidine, Dexmedetomidine] | – | – | – | – | – | – | 60 | brief, partial sensory blockade | greater than subcutaneous dexmedetomidine alone | affected both paws equally | no neurotoxicity
